This passage reports IC50 results from publication PMC11951083, “Highly Specific Miniaturized Fluorescent Monoacylglycerol Lipase Probes Enable Translational Research” (Journal of the American Chemical Society, 2025).

Some results are limits rather than exact numbers.

One assay concerns the target T1, mMAGL (Mus musculus, UniProt O35678).
T1 sequence (O35678 1-303): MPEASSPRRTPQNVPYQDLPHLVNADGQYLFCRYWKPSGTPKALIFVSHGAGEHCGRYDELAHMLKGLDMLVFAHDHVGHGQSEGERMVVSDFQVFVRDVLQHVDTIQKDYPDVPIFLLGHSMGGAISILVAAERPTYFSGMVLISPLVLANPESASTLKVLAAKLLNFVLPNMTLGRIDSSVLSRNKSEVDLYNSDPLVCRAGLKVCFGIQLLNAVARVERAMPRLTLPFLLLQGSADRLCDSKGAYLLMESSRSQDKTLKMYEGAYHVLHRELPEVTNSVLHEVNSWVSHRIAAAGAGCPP
As to the kind of experiment: Native MS (RapidFire) 2-AG substrate assay, purified mouse MAGL. In kind it is biochemical. The settings on record: SI Table 1; read-out: IC50 against purified MAGL ± SEM, Mouse. On the procedure: (§1) In vitro MAGL Inhibition Assay
(§2) Compounds were profiled for MAGL inhibitory activity by determining the enzymatic activity by following the hydrolysis of the natural substrate 2-arachidonoylglycerol (2-AG), resulting in arachidonic acid, which can be followed by mass spectrometry. The 2-AG assay was carried out in 384 well assay plates (PP, Greiner Cat# 784201) in a total volume of 20 µL. Compound dilutions were made in 100% DMSO (VWR Chemicals 23500.297) in a polypropylene plate in 3-fold dilution steps to give a final concentration range in the assay from 12.5 µM to 0.8 pM. 0.25µL compound dilutions (100% DMSO) were added to 9 µL MAGL in assay buffer (50 mM TRIS (GIBCO, 15567-027), 1 mM EDTA (Fluka, 03690-100 mL), 0.01% (v/v) Tween. After shaking, the plate was incubated for 15 min at RT. To start the reaction, 10 µL 2-arachidonoylglycerol in assay buffer was added. The final concentrations in the assay were 50 pM MAGL and 8 µM 2-arachidonoylglyerol. After shaking and 30 min incubation at RT, the reaction was quenched by the addition of 40µL of ACN containing 4µM of d8-arachidonic acid. The amount of arachidonic acid was traced by an online SPE system (Agilent Rapidfire) coupled to a triple quadrupole mass spectrometer (Agilent 6460). A C18 SPE cartridge (G9205A) was used in an ACN/water liquid setup. The mass spectrometer was operated in negative electrospray mode following the mass transitions 303.1 → 259.1 for arachidonic acid and 311.1 → 267.0 for d8-arachidonic acid. The activity of the compounds was calculated based on the ratio of intensities [arachidonic acid / d8-arachidonic acid]. The lowest IC50 value that can be determined with high accuracy is approximately 0.025 nM.

Another assay concerns the target T2, MAGL (Homo sapiens, UniProt Q99685).
T2 sequence (Q99685 1-303): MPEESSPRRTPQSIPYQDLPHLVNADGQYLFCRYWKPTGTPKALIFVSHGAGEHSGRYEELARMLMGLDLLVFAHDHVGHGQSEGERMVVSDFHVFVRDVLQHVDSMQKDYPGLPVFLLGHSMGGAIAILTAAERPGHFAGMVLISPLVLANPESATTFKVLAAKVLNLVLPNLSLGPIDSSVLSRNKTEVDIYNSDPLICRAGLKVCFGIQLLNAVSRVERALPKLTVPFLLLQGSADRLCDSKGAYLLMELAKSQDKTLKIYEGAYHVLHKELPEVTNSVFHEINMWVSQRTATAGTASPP
As to the kind of experiment: Native MS (RapidFire) 2-AG substrate assay, purified human MAGL. Type of assay: biochemical. The note with it: SI Table 1; read-out: IC50 against purified MAGL ± SEM, Human. Here is the method: as §1, §2

For assay [1], the target named is NanoLuc luciferase MAGL fusion protein. As to the kind of experiment: Cellular MAGL NanoBRET target engagement assay in live HEK293 cells. Type of assay: cell-based. The note with it: SI Table 1, live HEK293 cells; read-out: NanoBRET IC50 ± SEM, HEK293. Here is the method:
This assay was performed as first described before.20
Compounds were profiled by a novel cellular MAGL NanoBRET™ Target Engagement assay, which measures the apparent affinity of test compounds by competitive displacement of a Roche -developed Tracer (WO2021058443, Example 2 121, or probe 4a, respectively), reversibly bound to a NanoLuc ® luciferase MAGL fusion protein in cells.
A HEK293A stable cell line expressing NanoLuc_MAGL was established at Roche and assigned as HEK293A_NanoLuc_MAGL clone #43. A fixed concentration of tracer is added to cells expressing the NanoLuc®_MAGL fusion protein to generate a BRET reporter complex. The introduction of competing compounds results in a dose -dependent decrease in NanoBRET™ energy transfer, which allows quantification of the intracellular affinity of the target protein for the test compound.
HEK293A_NanoLuc_MAGL clone #43 cells were cultured in DMEM (Gibco 31966) with 10% FBS and 800 ug/ml G418. The NanoBRET assay was performed by seeding 5000 cells/well in Costar low - volume white 384-well plate in assay buffer (1% FBS in HBSS), followed by adding the tracer (50 nM Example 21 or 100 nM 4a final concentration) and serial dilutions of test compounds. After 2 hours of incubation, Nanoluciferase substrates and extracellular inhibitors were added following the manufacturer's protocol (Promega, #N2520), and the NanoBRET signaling were quantified with the Paradigm (Molecular Devices).
For orientation: Bioluminescence resonance energy transfer reports proximity on the nanometre scale.

Another assay has as its target T3, cMAGL (Macaca fascicularis, UniProt A0A2K5V664).
T3 sequence (A0A2K5V664 11-297): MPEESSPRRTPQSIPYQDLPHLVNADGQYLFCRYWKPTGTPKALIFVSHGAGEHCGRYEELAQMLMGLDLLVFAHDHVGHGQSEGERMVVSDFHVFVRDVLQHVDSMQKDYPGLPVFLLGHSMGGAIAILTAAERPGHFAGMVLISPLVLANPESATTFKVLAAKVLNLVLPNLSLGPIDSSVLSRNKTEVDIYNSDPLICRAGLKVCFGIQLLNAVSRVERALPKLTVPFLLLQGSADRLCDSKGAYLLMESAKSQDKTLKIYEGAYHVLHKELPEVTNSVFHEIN
As to the kind of experiment: Native MS (RapidFire) 2-AG substrate assay, purified cynomolgus monkey MAGL. In kind it is biochemical. The note with it: SI Table 1; read-out: IC50 against purified MAGL ± SEM, Cynomolgus. Here is the method:
as §1, §2

A further assay concerns the target T4, rMAGL (Rattus norvegicus, UniProt Q8R431).
T4 sequence (Q8R431 1-303): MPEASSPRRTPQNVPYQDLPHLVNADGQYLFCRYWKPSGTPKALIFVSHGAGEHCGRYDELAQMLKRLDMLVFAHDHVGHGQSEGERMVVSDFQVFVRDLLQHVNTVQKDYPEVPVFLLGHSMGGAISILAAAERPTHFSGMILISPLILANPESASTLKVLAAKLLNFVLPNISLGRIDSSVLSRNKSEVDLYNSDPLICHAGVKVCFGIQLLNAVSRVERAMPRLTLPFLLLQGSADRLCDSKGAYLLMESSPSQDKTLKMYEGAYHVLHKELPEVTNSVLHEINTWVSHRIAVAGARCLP
As to the kind of experiment: Native MS (RapidFire) 2-AG substrate assay, purified rat MAGL. The note with it: SI Table 1; read-out: IC50 against purified MAGL ± SEM, Rat. In kind it is biochemical. On the procedure:
as §1, §2

Usually IC50 stands for the concentration at which inhibition is half-maximal. On to `O=C1CO[C@H]2CCN(C(=O)N3C[C@@H]4[C@@H](COC5=C6C=CC=[N+]6[B-](F)(F)n6cccc65)[C@@H]4C3)C[C@H]2N1` [Compound S3], for which the IC50 on mMAGL was 1040 nM; on MAGL, 500 nM; in assay [1], greater than 10000 nM.
As for `O=C1CO[C@H]2CCN(C(=O)N3CC4(CCC(OC5=C6C=CC=[N+]6[B-](F)(F)n6cccc65)CC4)C3)C[C@H]2N1` [Compound S4], the IC50 on cMAGL is 8.37 nM; at mMAGL, 7.06 ± 4.73 nM; on MAGL, 3.82 ± 1.91 nM; on rMAGL, 21.6 nM; in assay [1] it was 4630 ± 52 nM.
`O=C1CO[C@H]2CCN(C(=O)N3CCC4(CC3)CC(OC3=C5C=CC=[N+]5[B-](F)(F)n5cccc53)C4)C[C@H]2N1` [Compound S6]: the results for the IC50 (at mMAGL; at MAGL; in assay [1]) were 170 nM, 45 nM and greater than 10000 nM, respectively.
Turning to `O=C1NC2(CO1)CN(C(=O)N1CCC3(CC1)CC(OC1=C4C=CC=[N+]4[B-](F)(F)n4cccc41)C3)C2` [Compound S8], the values for the IC50 (on mMAGL; at MAGL; in assay [1]) were 13.6 nM, 3.99 nM and greater than 10000 nM, respectively.
Consider `O=C1CO[C@H]2CCN(C(=O)N3CCC(=CC4=C5C=CC=[N+]5[B-](F)(F)n5cccc54)CC3)C[C@H]2N1` [Compound S10], for which the IC50 was 3400 nM at mMAGL, 1680 nM at MAGL and greater than 10000 nM in assay [1].
As to `O=C1CO[C@H]2CCN(C(=O)N3CC4(CCC(CC5=C6C=CC=[N+]6[B-](F)(F)n6cccc65)CC4)C3)C[C@H]2N1` [Compound S12], the IC50 on cMAGL amounted to 2.73 nM; at mMAGL it was 12.4 nM; on MAGL, 2.35 nM; at rMAGL, 10.9 nM; in assay [1], 564 nM.
Regarding `O=C1CO[C@H]2CCN(C(=O)N3CC4(CC(=CC5=C6C=CC=[N+]6[B-](F)(F)n6cccc65)C4)C3)C[C@H]2N1` [Compound S13], the values for the IC50 (at mMAGL; on MAGL; in assay [1]) were 182 nM, 43.3 nM and greater than 10000 nM, respectively.
With `O=C1NC2(CO1)CN(C(=O)N1CC3(CC(=CC4=C5C=CC=[N+]5[B-](F)(F)n5cccc54)C3)C1)C2` [Compound S14], the IC50 at mMAGL was 12.4 nM; at MAGL it was 12.6 nM; in assay [1], greater than 10000 nM.
As for `O=C1NC2(CO1)CN(C(=O)N1CC3(CC(CC4=C5C=CC=[N+]5[B-](F)(F)n5cccc54)C3)C1)C2` [Compound S15], the concentration for half-maximal inhibition (IC50) on cMAGL came to 3.27 nM; on mMAGL, 1.36 nM; at MAGL, 1.26 nM; at rMAGL it was 4.46 nM; in assay [1] it was 5540 nM.
For the compound `O=C1NC2(CO1)CN(C(=O)N1CC3(CCC(=CC4=C5C=CC=[N+]5[B-](F)(F)n5cccc54)CC3)C1)C2` [Compound S16], the IC50 at mMAGL was 0.81 nM; on MAGL it was 0.67 nM; in assay [1], 574 nM.
Consider `O=C1N[C@H](CCC(=O)N2CC3(CC(CC4=C5C=CC=[N+]5[B-](F)(F)n5cccc54)C3)C2)CO1` [Compound S17], for which the IC50 on mMAGL was found to be 0.84 nM; on MAGL, 1.01 nM; in assay [1], 300 nM.
As for `NC(=O)[C@H]1CCN(C(=O)N2CC3(CC(CC4=C5C=CC=[N+]5[B-](F)(F)n5cccc54)C3)C2)C1` [Compound S18], the IC50 was found to be 2.07 nM at mMAGL, 1.98 nM at MAGL and 1940 nM in assay [1].
With `O=C1COc2ccc(C(=O)N3CC4(CC(CC5=C6C=CC=[N+]6[B-](F)(F)n6cccc65)C4)C3)cc2N1` [Compound S19], the IC50 on mMAGL was found to be 18.6 nM; on MAGL it was 7.5 nM; in assay [1], 299 nM.
`Cc1ccc2oc(N3CCN(C(=O)N4CC5(CC(CC6=C7C=CC=[N+]7[B-](F)(F)n7cccc76)C5)C4)CC3)nc2n1` [Compound S20]: the IC50 is 108 nM on mMAGL, 17.2 nM at MAGL and greater than 10000 nM in assay [1].
For `O=C1CO[C@H]2CCN(C(=O)N3CC4(CC(CC5=C6C=CC(c7ccccc7)=[N+]6[B-](F)(F)n6cccc65)C4)C3)C[C@H]2N1` [Compound S22], in that order: 0.37 nM, 0.66 nM and 56 ± 6 nM.
